The source of these data is patent US20070142378A1, “Method of treating restless legs syndrome and/or periodic limb movement disorder with (2s,3s) 2-(3-chlorophenyl)-3,5,5-trimethyl-2-morpholinol” (Smith Kline Beecham Corporation, priority 2003, published 2007).

For orientation: pIC50 means −log10 of the IC50, conventionally taken in molar units. The low end stands for a high IC50, the high end for a low IC50.

The target of series [1] is T1, noradrenaline (NA) uptake, synaptosomes from rat hypothalamus (Rattus norvegicus, UniProt Q63380).
T1 construct: Synaptosomes for use in obtaining in vitro uptake data were prepared from hypothalamus or striatum by gently homogenizing the tissue; from tissue; host or cells: rat hypothalamus synaptosomes (1100 x g supernatant)
The series can be described thus: In vitro synaptosomal uptake of [3H]-NA. The series is classed as biochemical. How it is done:
In vitro uptake was determined, as reported previously, using synaptosomes prepared from rat caudoputamen (for dopamine uptake) and hypothalamus (for NA and serotonin uptake) using [^3H]-dopamine, [^3H]-NA and [^3H]-serotonin as transport substrates, respectively. See Eckhardt, S. B., R. A. Maxwell, and R. M. Ferris, A Structure-Activity Study of the Transport Sites for the Hypothalamic and Striatal Catecholamine Uptake Systems. Similarities and differences. Molecular Pharmacology, 21: p. 374-9,1982
Synaptosomes for use in obtaining in vitro uptake data were prepared from hypothalamus or striatum by gently homogenizing the tissue in a 0.3 M sucrose/25 mM Tris pH 7.4 buffer containing iproniazid phosphate to inhibit monoamine oxidase. The homogenate was centrifuged at 1100×g at 4° C. for 10 min and the supernatant was used for uptake studies. […] Under these conditions uptake was linear with respect to both for substrate and tissue (with <5% total substrate transported). Non-specific uptake was defined as uptake at 0° C. [^3H]-substrate, which had been transported into synaptosomes, was separated from free [^3H]-substrate by filtration over GF/B filters and washing with cold Krebs-Henseleit buffer. The filters were counted for tritum in a liquid scintillation spectrometer.

Series [2] concerns the target T2, serotonin uptake, synaptosomes from rat hypothalamus (Rattus norvegicus, UniProt P31652).
T2 construct: Synaptosomes for use in obtaining in vitro uptake data were prepared from hypothalamus or striatum by gently homogenizing the tissue; from tissue; host or cells: rat hypothalamus synaptosomes
The series can be described thus: In vitro synaptosomal uptake of [3H]-serotonin. Format: biochemical. The following applies: at 30 μM. The source says: Similarities and differences. Molecular Pharmacology, 21: p.

Series [3] has as its target T3, dopamine transporter (DAT) (Homo sapiens, UniProt Q01959).
T3 construct: from tissue; host or cells: striatum of healthy male volunteers, in vivo PET with 11C-βCIT-FE
The series can be described thus: Dopamine transporter (DAT) receptor occupancy study, PET with 11C-βCIT-FE. The series is classed as in vivo. The following applies: for DAT receptor occupancy: Part A, healthy male volunteers, PET 2.5 hours after initiation of dosing; for average DAT receptor occupancy: Part B, 60 mg modified release oral once daily for 6 days. How it is done:
The study was conducted in two parts. Part A utilized positron emission tomography (PET) to characterize the concentration-percent occupancy relationship with respect to the dopamine transporter (DAT) after dosing with intravenous compound of formula (I) to pseudo-steady-state. Part B utilized PET to evaluate the time course of occupancy at the dopamine transporter following steady-state dosing of the compound of formula (I) via a modified release oral formulation. The tracer used in this study to assess the occupancy at the DAT was ^11C-βCIT-FE.
Part A. Six healthy male volunteers each received a 20.6 mg intravenous dose of the compound of formula (I) administered via a 2-hour loading infusion followed by a 2-hour maintenance infusion to achieve pseudo-steady-state. Each subject then received two additional doses (61.8 mg and 91.2 mg) of the compound of formula (I), with each dose separated by 3 weeks. A baseline PET scan was performed between 1 and 7 days prior to first dosing with formula (I), and then each post-dose PET scan performed 2.5 hours after the initiation of each of the three dosing regimens.
The concentrate solution for infusion was formulated to contain 10 mg free base equivalent per mL as the hydrochloride salt of the compound of formula (I), and consisted of a clear, colorless solution, pH adjusted to approximately 4.5, buffered with 50 mmol citrate buffer. The product was diluted to a total volume of 250 mL with 0.9% weight-to-volume ratio (w/v) sodium chloride injection prior to being administered.
Part B. Six healthy male volunteers received 60 mg of the compound of formula (I) via a modified release oral formulation once daily for 6 days in order to achieve steady-state by the last day. Four ^11C-βCIT-FE PET scans were performed for each subject, the first between 1 and 7 days prior to dosing and the remaining three at 6, 12 and 24 hours following the final dose on Day 6. The oral formulations were uncoated tablets, containing 20 mg and 40 mg of the compound of formula (I) as the hydrochloride salt details of the formulations are set out below as Examples 6 and 7 (prepared by an analogous method to Examples 1 to 5 above).

Series [4] relates to cell-lines expressing human monoamine transporters. Nature of the series: Compound-induced cytotoxicity in the transporter-expressing cells. The note with it: at any of the concentrations causing reuptake inhibition. The series is classed as cell-based.

pIC50: −log10 of the molar value. Counter-ions that a name gives are not always drawn.

T3 sequence (Q01959 whole entry): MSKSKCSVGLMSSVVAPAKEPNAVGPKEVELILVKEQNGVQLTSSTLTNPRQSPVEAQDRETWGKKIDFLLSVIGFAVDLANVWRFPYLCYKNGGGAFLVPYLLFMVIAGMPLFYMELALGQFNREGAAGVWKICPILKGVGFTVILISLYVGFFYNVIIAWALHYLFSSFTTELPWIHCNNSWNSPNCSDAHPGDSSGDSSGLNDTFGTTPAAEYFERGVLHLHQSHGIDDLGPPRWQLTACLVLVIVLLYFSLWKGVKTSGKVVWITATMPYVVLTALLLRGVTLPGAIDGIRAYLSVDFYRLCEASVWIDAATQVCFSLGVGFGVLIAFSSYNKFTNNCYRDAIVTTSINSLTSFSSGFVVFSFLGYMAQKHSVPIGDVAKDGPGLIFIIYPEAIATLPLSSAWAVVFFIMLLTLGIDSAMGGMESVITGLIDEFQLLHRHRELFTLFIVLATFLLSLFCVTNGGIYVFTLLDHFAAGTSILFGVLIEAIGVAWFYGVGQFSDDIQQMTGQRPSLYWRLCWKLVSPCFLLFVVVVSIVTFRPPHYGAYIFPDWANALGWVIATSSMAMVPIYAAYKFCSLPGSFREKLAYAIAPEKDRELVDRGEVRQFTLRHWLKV
T2 sequence (P31652 whole entry): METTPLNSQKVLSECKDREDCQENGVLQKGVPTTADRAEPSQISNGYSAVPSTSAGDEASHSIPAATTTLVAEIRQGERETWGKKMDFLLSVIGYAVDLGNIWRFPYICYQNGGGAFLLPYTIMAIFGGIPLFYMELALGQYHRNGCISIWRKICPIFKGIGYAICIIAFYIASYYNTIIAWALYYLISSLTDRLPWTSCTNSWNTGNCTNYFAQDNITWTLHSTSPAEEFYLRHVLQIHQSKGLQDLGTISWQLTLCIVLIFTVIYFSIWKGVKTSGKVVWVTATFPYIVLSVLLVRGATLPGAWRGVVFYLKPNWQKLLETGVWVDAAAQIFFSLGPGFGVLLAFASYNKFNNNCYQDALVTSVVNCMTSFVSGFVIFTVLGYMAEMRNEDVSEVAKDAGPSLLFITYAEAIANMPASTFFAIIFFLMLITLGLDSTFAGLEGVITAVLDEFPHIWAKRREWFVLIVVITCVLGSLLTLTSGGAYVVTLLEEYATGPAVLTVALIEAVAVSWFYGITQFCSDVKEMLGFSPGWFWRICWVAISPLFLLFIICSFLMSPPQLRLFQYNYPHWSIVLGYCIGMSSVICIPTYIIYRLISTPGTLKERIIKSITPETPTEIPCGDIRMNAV
T1 sequence (Q63380 1-617): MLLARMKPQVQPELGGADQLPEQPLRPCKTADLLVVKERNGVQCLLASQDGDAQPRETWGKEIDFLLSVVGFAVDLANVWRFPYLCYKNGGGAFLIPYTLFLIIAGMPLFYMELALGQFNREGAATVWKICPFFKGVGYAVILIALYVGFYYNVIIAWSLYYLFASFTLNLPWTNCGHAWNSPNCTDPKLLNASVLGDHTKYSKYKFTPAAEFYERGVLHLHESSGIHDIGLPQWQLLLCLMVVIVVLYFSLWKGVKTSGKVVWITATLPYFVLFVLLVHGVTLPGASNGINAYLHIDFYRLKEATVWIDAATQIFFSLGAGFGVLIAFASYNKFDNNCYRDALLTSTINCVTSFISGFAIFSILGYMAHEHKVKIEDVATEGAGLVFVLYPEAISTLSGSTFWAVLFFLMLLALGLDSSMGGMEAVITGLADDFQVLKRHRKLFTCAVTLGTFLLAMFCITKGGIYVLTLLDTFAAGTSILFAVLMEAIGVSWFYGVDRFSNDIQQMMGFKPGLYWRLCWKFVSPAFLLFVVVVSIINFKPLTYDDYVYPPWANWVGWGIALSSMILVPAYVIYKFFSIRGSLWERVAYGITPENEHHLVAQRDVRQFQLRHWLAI

`C[C@@H]1NC(C)(C)CO[C@@]1(O)c1cccc(Cl)c1` [Formula (I), (+)-(2S,3S)-2-(3-chlorophenyl)-3,5,5-trimethyl-2-morpholinol] gave a pIC50 in series [1] of 5.96. In addition, in series [2], the “inhibition of serotonin uptake” value is recorded as “no inhibition”. Also, the DAT receptor occupancy in series [3] (20.6 mg intravenous) came out at 14±0.38%; in series [3] (61.8 mg intravenous), 37±8.0%; in series [3] (91.2 mg intravenous) it was 47±6.8%. Also, the “average DAT receptor occupancy” value was found to be 29±5.3% in series [3] (6 hours after the last dose) and 27±11.3% in series [3] (during the following 6 hours (12 hour scan)).
Consider `C[C@@H]1NC(C)(C)CO[C@@]1(O)c1cccc(Cl)c1` [Formula (I).HCl, (+)-(2S, 3S)2-(3-chlorophenyl)-3,5,5-trimethyl-2-morpholinol hydrochloride], for which the cytotoxicity result in series [4] is recorded as “No cytotoxicity was observed”.
